Laboratory results reported in patent US20120028917A1, “Use Of N-(4-((3-(2-Amino-4-Pyrimidinyl)-2-Pyridinyl)Oxy)Phenyl)-4-(4-Methyl-2-Thienyl)-1-Phthalazinamine In The Treatment Of Antimitotic Agent Resistant Cancer” (Amgen Inc., priority 2009, published 2012).

How the values were obtained:
MES-SA = test: p-Histone H3 assay (ArrayScan VTi); assay type: cell-based; conditions: Homo sapiens, 24 h, Uterine, Parent line
Method: (§1) MES-SA Dx5 and MES-SA cells were plated at a density of 10,000 cells/well onto 96-well plate in complete media and cultured for 24 hours. […] Cells were washed and fixed by adding 100 μL of 2× formaldehyde fixation buffer for 10 minutes and room temperature. […] Cells were immunostained with p-histone H3 antibody (5 μg/mL) and incubated at room temperature for 2 hours. Cells were washed in 100 μL of wash buffer. Next, cells were incubated with a goat anti-rabbit alexa-488 conjugated antibody (1.5 μg/mL) in wash buffer supplemented with Hoechest DNA dye (1 μg/mL) and incubated at room temperature in the dark for 30 minutes. Cells were washed twice with 100 μL of wash buffer. The 96-well plates were analyzed on an ArrayScan VTi (Cellomics) using a bioapplication algorithm (TargetActivation.V2). […] Cells were then fixed and stained with p-histone H3 antibody and counterstained with a DNA dye (Hoechest). Imaging-based analysis (ArrayScan VTi) was performed to measure the percentage of p-histone H3 positive cells. The dose-response curves represent either AMG 900 or taxol concentrations plotted against p-Histone H3 positive cells as a percentage of DMSO-treated control (POC). The EC50 values were calculated by 4-parameter fit model.

MES-SA Dx5 = test: p-Histone H3 assay (ArrayScan VTi); assay type: cell-based; conditions: Homo sapiens, 24 h; MES-SA Dx5, Uterine, Doxorubicin-selected, P-gp overexpressing
Method: as §1

HCT116 AZD1152-resistant = test: Colony formation assay (FIG. 6-B); assay type: cell-based, human; conditions: HCT116 AZD1152-resistant; 48 hours treatment, re-plated drug-free
Method: Tumor cell lines were obtained from the American Type Culture Collection (ATCC) unless otherwise specified. The MDA-MB-231-PTX and NCI-H460-PTX cell lines were established by growing the cells in the presence of increasing concentrations of paclitaxel over a period of 6 months. The HCT116 AZD1152-resistant cell line was established by growing the cells in the presence of AZD1152 at 80 nmol/L. Tumor cells were treated with AMG 900, paclitaxel or AZD1152 (0.5, 5, 50 nmol/L) for 48 hours, washed twice with complete media, and cells were re-plated at a density of 5000 cells per well in drug-free complete media. Cells were grown until the DMSO control wells were confluent. Cells were stained with crystal violet dye (Sigma), washed with distilled water, and imaged using a digital scanner (Hewlett-Packard). Colony formation assay was performed with HCT116 cell lines (parental and AZD1152-resistant). Cells were treated with DMSO, AMG 900, AZD1152, or paclitaxel at the indicated concentrations for 48 hours and re-plated in complete media lacking the inhibitor. After the DMSO-treated cells reached confluence, the cells were stained with crystal violet and imaged (duplicate wells).

MDA-MB-231 = test: Antiproliferative assay (ArrayScan VTi); assay type: cell-based; conditions: Homo sapiens; MDA-MB-231 (Breast); 24 h treatment, then 48 h without compound
Method: Tumor cells were seeded in a Packard View 96-well plate in 100 μL of appropriate complete media at a density of 3000 or 5000 cells/well depending on the cell line growth kinetics (broadly defined as slow vs. fast). All dilutions were performed using Biomek FX workstation. The next day cells were treated with AMG 900 (11-point dose range 0.156 to 0.0003 μM) with a final DMSO concentration of 0.12% in media. After 24 hours, the media containing compound was removed and the cells were washed with complete media. The cells were then incubated in 100 μL of fresh complete media (without compound) for 48 hours. After 48 hours, the cells were fixed by adding 100 μL of fixation buffer to 100 μL of complete media. The cells were incubated at room temperature for 10 minutes. The fixation buffer was aspirated and the cells were then permeabilized in 100 μL wash buffer for 30 minutes at room temperature followed by the addition of 100 μL of DNA stain buffer and incubated at room temperature for 30 minutes in the dark. Next, the cells were washed with 100 μL of wash buffer and stored in 100 μL 1×PBS at 4 degrees Celsius until analysis. Cellular data was attained by scanning the 96-well plates on an ArrayScan VTi imaging system (Cellomics). Quantification of individual cell nuclear area and intensity was performed based on Hoechst 33342 DNA dye fluorescence. A threshold on the nuclear area based on the DMSO-treated control well was set to quantify the number of normal size nuclei from nuclear debris and polyploidy cells. This threshold value was applied to enumerate the number of normal nuclei in six image fields/well using a magnification of 10×. The dose-concentration curves and EC50 values were calculated using a 4-parameter equation.

[1] = system: MDR tumor cell lines expressing either P-gp or BCRP; test: p-histone H3 / polyploidy in MDR tumor cell lines (summary); assay type: cell-based; conditions: Homo sapiens; all cell lines tested irrespective of P-gp or BCRP status; read-out: IC50 or EC50 values (p-histone H3 inhibition or polyploidy)
Method: All high-content cell assays were performed on an ArrayScan VTi HCS Reader (Cellomics). Tumor cell lines were treated with AMG 900, AZD1152, MK-0457, or PHA-739358 (concentration range varied based on potency). The cells were prepared for intracellular staining with an anti-p-histone H3 Ser^10 antibody as previously described (1). Detection was performed with an anti-rabbit IgG-alexa-568 antibody and DAPI. The cellular levels of p-histone H3 were analyzed using Target Activation V2 algorithm (Cellomics) to determine the percentage of positive cells. For the imaging assays, the concentration-response curves and corresponding IC50 and EC50 values were calculated using the percentage of cells affected versus the DMSO control.
Tumor cells were treated with AMG 900, AZD1152, MK-0457, or PHA-739358 (range concentration varied based on potency) for 24 hours and processed for cell-cycle analysis (DNA staining only) as previously described (1). Cells were analyzed on a LSRII flow cytometer using BD FACS Diva software. The concentration-response curves and corresponding EC50 values were calculated using the percentage of cells with ≧4N DNA content versus the DMSO control.

Cc1csc(-c2nnc(Nc3ccc(Oc4ncccc4-c4ccnc(N)n4)cc3)c3ccccc23)c1 [AMG 900, N-(4-((3-(2-amino-4-pyrimidinyl)-2-pyridinyl)oxy)phenyl)-4-(4-methyl-2-thienyl)-1-phthalazinamine]
EC50 (MES-SA): < 2 nM
EC50 (MES-SA Dx5): < 2 nM
concentrations inhibiting colony formation (HCT116 AZD1152-resistant): ≥ 5 nmol/L
EC50 (MDA-MB-231): 2 nM
IC50 [1]: 2 to 3 nM
